Source: US8703811B2, “Small molecule inhibitors of Plasmodium falciparum dihydroorotate dehydrogenase” (Genzyme Corporation, priority 2008, dated 2014)
Like-named read-outs stand apart in the source and are kept apart here.

Columns and labels:
P. falciparum 3D7 = experiment: Inhibition of in vitro P. falciparum culture, [3H]-hypoxanthine uptake, 3D7; type: cell-based; conditions: Plasmodium falciparum, 3D7, Erythrocyte, read-out: 3D7 IC50
Protocol: (§1) P. falciparum strains D10, 3D7, HB3, and Dd2 were obtained from the Malaria Research and Reference Reagent Resource Center (Manassas, Va.). The parasite strains were maintained in vitro by method of Trager and Jensen. The inhibition of P. falciparum growth in the presence of drug was assessed by the relative reduction of [^3H]-hypoxanthine uptake as previously described. Inhibition data were fitted to Equation 1 using non-linear regression analysis except that the relative velocity of parasite growth was substituted for the rate of product formation.

P. falciparum Dd2 = experiment: Inhibition of in vitro P. falciparum culture, [3H]-hypoxanthine uptake, Dd2; type: cell-based; conditions: Plasmodium falciparum, DD2, Erythrocyte, read-out: Dd2 IC50
Protocol: as §1

P. falciparum HB3 = experiment: Inhibition of in vitro P. falciparum culture, [3H]-hypoxanthine uptake, HB3; type: cell-based; conditions: Plasmodium falciparum, HB3, Erythrocyte, read-out: HB3 IC50
Protocol: as §1

P. falciparum D10 = experiment: Inhibition of in vitro P. falciparum culture, [3H]-hypoxanthine uptake, D10; type: cell-based; conditions: Plasmodium falciparum, D10, Erythrocyte, read-out: D10 IC50
Protocol: as §1

[1] = test system: P. falciparum D10-scDHODH; experiment: Inhibition of transgenic D10-scDHODH parasites, [3H]-hypoxanthine uptake; type: cell-based; conditions: for IC50: Plasmodium falciparum, D10, read-out: D10-scDHODH IC50; for efficacy against D10-scDHODH strain compared to D10 parent strain: dose-effect curves, FIG. 5
Protocol: as §1
Transgenic parasites expressing scDHODH were generated as described by Painter et al. except that full length scDHODH was cloned directly into the pGem3Z vector without a GFP tag. The resultant plasmid was transfected into ring stages of P. falciparum D10 by electroporation and maintained in culture using standard methods under the selection of WR99210.

pfDHODH [2] = target: T1, pfDHODH (Plasmodium falciparum (isolate 3D7), UniProt Q08210); experiment: DHODH chromogen reduction (DCIP) assay, pfDHODH; type: biochemical, P. falciparum; conditions: 200 μM L-DHO; for inhibition at 50 µM: 50 μM inhibitor, 100 μM CoQD, 60 μM DCIP, read-out: % Inhibition of Product Formation Rate with 50 μM Inhibitor, CoQD; for IC50: pfDHODH IC50, DCIP assay, 18 μM CoQD, 100 μM DCIP, 20 nM enzyme
From the text: Type 2 DHODH activity was monitored with either the direct assay measuring the formation of orotate or via a chromogen reduction assay using DCIP. Although the extinction coefficient and absorption wavelength are preferable for the chromogen reduction assay, the inorganic electron acceptor DCIP can be utilized by DHODH as the final electron acceptor in lieu of CoQn when the endogenous substrate is at a low concentration. As such, the direct assay was used to measure the binding affinity of pfDHODH to CoQD and L-DHO. The enzymatic reaction was performed by varying the L-DHO concentration (1-400 μM) or CoQD concentration (1-200 μM) while keeping the other substrate constant and in excess.
Substrate specificity and enzyme inhibition data was analyzed with GraphPad Prism Version 4 for Windows (GraphPad Software). Kinetic constants were calculated by non-linear regression fitting of the data to the Michaelis-Menten equation [36]. IC50 values were determined by non-linear regression fitting of the data to Equation 1: […]

[3] = Renal Proximal Tubule Epithelial Cell Toxicity Screen; type: cell-based
Protocol: The Renal Proximal Tubule Epithelial Cell Toxicity Screen is designed to determine whether compound mixtures, breakouts or single compounds are toxic to normal renal epithelial cells. […] Basically, the screen consists of plating renal epithelial cells, exposing them to the desired compound(s) for 4 days and measuring cell viability using the Alamar Blue reagent.
Harvested Kidney Epithelial cells were diluted in REGM to 1.5×10^4 cells/mL. […] NOTE: One plate, the T=0 plate required that 20-30 wells be seeded, and all the other plates had 96 wells seeded. Plates were incubated in 37° C./5% CO2 incubator for 24 hours.
(§2) Alamar Blue solution (25 μL/well) was added to the T=0 plate and mixed. The plate was incubated in 37° C./5% CO2 incubator for 4 hours, mixed and then the fluorescence was measured. 10% Tween 20 stock (10 μL) was added into rows A-D in column 1 (positive control). DMSO (0.5 μL) was added into column 2 (negative control). Compounds were placed into designated wells for desired testing as follows:
Plates were mixed on the shaker, and then incubated in 37° C./5% CO2 incubator for 96 hours. Day 6:
Alamar Blue solution (25 μL/well) was added to the plates containing the compounds and mixed. Plates were incubated in 37° C./5% CO2 incubator for 4 hours, mixed and the fluorescence was measured.

[4] = Normal Human Dermal Fibroblast Toxicity Screen; type: cell-based; conditions: human, normal human dermal fibroblasts; four days exposure, Alamar Blue; read-out: Dermal Fibroblast LC50
Protocol: The Normal Human Dermal Fibroblast Toxicity Screen Protocol is designed to determine whether compound mixtures, breakouts or single compounds are toxic to normal human dermal fibroblasts. The screen involves plating the dermal fibroblasts and then exposing them to the compounds for four days, then cell viability is measured using Alamar Blue reagent.
Harvested Dermal Fibroblast cells were diluted in Growth Media to 0.25 to 0.3×10^5 cells/mL. […] NOTE: One plate, the T=0 plate required that 20-30 wells be seeded and all the other plates had 96 wells seeded. Plates were incubated in 37° C./5% CO2 incubator for 24 hours.
as §2, with “the plate was agitated.” for “mixed.”, “plate” for “plate was incubated”, “incubator was incubated” for “incubator”, “3” for “4”, “agitated the” for “mixed”, “and” for “and then”
Plates were mixed on the shaker, then incubated in 37° C./5% CO2 incubator for 96 hours.
Alamar Blue solution (25 μL/well) was added to the plates containing the compounds, and the plates were agitated. The plates were incubated in 37° C./5% CO2 incubator for 3 hours, agitated and then the fluorescence was measured.

pfDHODH [5] = target: T1, pfDHODH; experiment: pfDHODH activity with FeCy as electron acceptor; conditions: read-out: % Inhibition of Product Formation Rate with 50 μM Inhibitor, FeCy
Protocol: Inhibitors of DHODH, as classified by the chromogen reduction assay, were also evaluated for activity using FeCy as an electron acceptor. A final concentration of 5-50 nM DHODH, 200 μM L-DHO and 100 μM FeCy in Buffer C was used in this assay. Both the reduction of FeCy and the formation of orotate was monitored at 420 nm (ε420=1 mM^−1 cm^−1) and 290 nm (ε280=2 mM^−1 cm^−1), respectively, noting that two molecules of FeCy are reduced for one molecule of L-DHO. As with the previous assays, the reaction was performed at 25° C. and initiated with the addition of enzyme.

[6] = [3H]-hypoxanthine uptake by parasite infected erythrocytes

T1 sequence (Q08210 159-565 limits assumed): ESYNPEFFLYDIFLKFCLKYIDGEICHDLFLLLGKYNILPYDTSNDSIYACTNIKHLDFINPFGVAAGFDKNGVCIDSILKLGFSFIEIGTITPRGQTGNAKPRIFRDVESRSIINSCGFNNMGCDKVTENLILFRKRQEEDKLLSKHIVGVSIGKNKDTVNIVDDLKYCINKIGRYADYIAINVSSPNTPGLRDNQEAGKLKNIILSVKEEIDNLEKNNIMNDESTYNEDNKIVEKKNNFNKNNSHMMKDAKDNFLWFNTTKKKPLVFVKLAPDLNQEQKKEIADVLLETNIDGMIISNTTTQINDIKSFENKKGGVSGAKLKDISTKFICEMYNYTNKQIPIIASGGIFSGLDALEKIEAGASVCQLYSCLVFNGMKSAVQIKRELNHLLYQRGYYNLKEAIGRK

Compound	IC50 (P. falciparum 3D7; [6]) [nM]	IC50 (P. falciparum Dd2; [6]) [nM]	IC50 (P. falciparum HB3; [6]) [nM]	IC50 (P. falciparum D10; [6]) [nM]	IC50 [1] [nM]	inhibition at 50 µM (pfDHODH [2]) [%]	IC50 (pfDHODH [2]) [nM]	CC50 at 96 h [3] [nM]	CC50 at 96 h [4] [nM]	inhibition at 50 µM (pfDHODH [5]) [%]	efficacy against D10-scDHODH strain compared to D10 parent strain [1]	IC50 (P. falciparum 3D7) [nM]	IC50 (P. falciparum Dd2) [nM]	IC50 (P. falciparum HB3) [nM]	IC50 (P. falciparum D10) [nM]
CCc1nc(N)nc(N)c1-c1ccc(Cl)cc1 [Pyrimethamine, reference compound]	36	> 10000	940	55	47	–	–	–	–	–	–	–	–	–	–
Fc1cc(I)ccc1Nc1ccnc2cc(Cl)ccc12 [Compound 4]	1800	2300	2200	1000	980	97	580 ± 100	49000	64000	7.7	–	–	–	–	–
Cc1ccccc1/C=C/c1cc(O)c2ccccc2n1 [Compound 2]	320	250	240	300	8800	94	930 ± 100	> 62000	> 62000	1.2	–	–	–	–	–
CCOC(=O)c1[nH]c(C)c(Cc2ccc(OCC)cc2)c1C [Compound 6]	770	440	690	1200	> 10000	102	–	> 62000	> 62000	4.8	–	–	–	–	–
CCCCCC1CCCc2c1nc1ccccc1c2O (centres unmarked) [Compound 3]	320	230	270	370	> 10000	100	340 ± 100	> 62000	> 62000	17	–	–	–	–	–
O=C1C(O)=C([C@H]2CC[C@H](c3ccc(Cl)cc3)CC2)C(=O)c2ccccc21 [Atovaquone, reference compound]	0.18	0.2	0.22	0.42	> 2000	–	–	–	–	–	significantly reduced drug efficacy	–	–	–	–
CCN(CC)CCCC(C)Nc1ccnc2cc(Cl)ccc12 (centres unmarked) [Chloroquine, reference compound]	–	–	–	–	13	–	–	–	–	–	equally sensitive	10	180	8	15
